Experiments:
Assay in all cases: relative viability (nuclei count vs DMSO), 5 days (fraction); higher = more cells survive
BMX-IN-1 + Linsitinib = compound: C=CC(=O)Nc1cc(-n2c(=O)ccc3cnc4ccc(-c5ccc(NS(C)(=O)=O)cc5)cc4c32)ccc1C [BMX-IN-1] + C[C@]1(O)C[C@@H](c2nc(-c3ccc4ccc(-c5ccccc5)nc4c3)c3c(N)nccn32)C1 [Linsitinib] (partner 1 µM)
Summary of the method: (§1)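 Dosing by pin tool came one day after lung cancer cell lines were seeded in 1536-well plates, using either one drug or a fixed anchor-drug dose plus five library-drug doses (not always all listed) in √10 steps. After 5 days, nuclei were counted on 4× images. Relative viability is treated-well nuclei count divided by vehicle-well nuclei count, and values are medians of duplicate plates.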

PAC-1 + Crizotinib = compound: C=CCc1cccc(/C=N/NC(=O)CN2CCN(Cc3ccccc3)CC2)c1O [PAC-1] + C[C@@H](Oc1cc(-c2cnn(C3CCNCC3)c2)cnc1N)c1c(Cl)ccc(F)c1Cl [Crizotinib] (partner 1 µM)
Summary of the method: as §1

PAC-1 + Linsitinib = compound: C=CCc1cccc(/C=N/NC(=O)CN2CCN(Cc3ccccc3)CC2)c1O [PAC-1] + C[C@]1(O)C[C@@H](c2nc(-c3ccc4ccc(-c5ccccc5)nc4c3)c3c(N)nccn32)C1 [Linsitinib] (partner 1 µM)
Summary of the method: as §1

PAC-1 + Palbociclib = compound: C=CCc1cccc(/C=N/NC(=O)CN2CCN(Cc3ccccc3)CC2)c1O [PAC-1] + CC(=O)c1c(C)c2cnc(Nc3ccc(N4CCNCC4)cn3)nc2n(C2CCCC2)c1=O [Palbociclib] (partner 0.5 µM)
Summary of the method: as §1

PAC-1 + Trametinib = compound: C=CCc1cccc(/C=N/NC(=O)CN2CCN(Cc3ccccc3)CC2)c1O [PAC-1] + CC(=O)Nc1cccc(-n2c(=O)n(C3CC3)c(=O)c3c(Nc4ccc(I)cc4F)n(C)c(=O)c(C)c32)c1 [Trametinib] (partner 0.02 µM)
Summary of the method: as §1

Cell Line | relative viability (BMX-IN-1 + Linsitinib; first compound 0.02 µM) | relative viability (BMX-IN-1 + Linsitinib; first compound 0.2 µM) | relative viability (BMX-IN-1 + Linsitinib; first compound 0.6325 µM) | relative viability (BMX-IN-1 + Linsitinib; first compound 2 µM) | relative viability (PAC-1 + Crizotinib; first compound 0.02 µM) | relative viability (PAC-1 + Crizotinib; first compound 0.06325 µM) | relative viability (PAC-1 + Crizotinib; first compound 0.2 µM) | relative viability (PAC-1 + Crizotinib; first compound 2 µM) | relative viability (PAC-1 + Linsitinib; first compound 0.02 µM) | relative viability (PAC-1 + Linsitinib; first compound 0.06325 µM) | relative viability (PAC-1 + Linsitinib; first compound 0.2 µM) | relative viability (PAC-1 + Linsitinib; first compound 2 µM) | relative viability (PAC-1 + Palbociclib; first compound 0.02 µM) | relative viability (PAC-1 + Palbociclib; first compound 0.06325 µM) | relative viability (PAC-1 + Palbociclib; first compound 0.2 µM) | relative viability (PAC-1 + Palbociclib; first compound 2 µM) | relative viability (PAC-1 + Trametinib; first compound 0.02 µM) | relative viability (PAC-1 + Trametinib; first compound 0.06325 µM) | relative viability (PAC-1 + Trametinib; first compound 0.2 µM) | relative viability (PAC-1 + Trametinib; first compound 2 µM)
NCI-H2347 | 1.1 | 1.02 | 1.04 | 0.958 | 0.82 | 0.715 | 0.748 | 0.826 | 0.97 | 1.02 | 0.894 | 0.986 | 0.499 | 0.435 | 0.477 | 0.414 | 0.309 | 0.285 | 0.297 | 0.269
NCI-H520 | 1.09 | 1.2 | 1.36 | 1.02 | 0.772 | 0.746 | 0.735 | 0.698 | 0.944 | 0.92 | 1 | 0.861 | 0.21 | 0.256 | 0.179 | 0.268 | 0.747 | 0.746 | 0.64 | 0.797
COR-L23 | 1.62 | 1.11 | 0.994 | 1.01 | 0.646 | 0.607 | 0.599 | 0.624 | 0.945 | 0.937 | 0.861 | 1.03 | 0.33 | 0.243 |  | 0.277 | 0.586 | 0.66 |  | 0.673
NCI-H2405 | 1.01 | 0.875 | 0.975 | 0.921 | 0.862 | 0.829 | 0.818 | 0.862 | 0.949 | 0.918 | 0.899 | 1.08 | 0.53 | 0.502 | 0.502 | 0.509 | 0.684 | 0.688 | 0.667 | 0.73
A-427 | 1.19 | 1.09 | 1.14 | 1.12 | 0.896 | 1.01 | 0.797 | 0.836 | 1.14 | 1.14 | 1.15 | 1.08 | 0.574 | 0.548 | 0.549 | 0.507 | 0.767 | 0.778 | 0.817 | 0.796

Source: the supplement of paper PMC10307832
